Test results: ChEMBL document CHEMBL1201862, “PubChem BioAssay data set” (2004)
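Test compounds were applied to cells in 96-well plates for 48 hours at 5 doses. Abbreviation: GI50, concentration required for 50% inhibition of growth.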 Calls of active or inactive are those of the source. No stated cut-off is given here; in the data, active = GI50 up to about 1.1 µM and inactive = higher. Starred links: 1 amine or outer side, 2 acyl side, 3 side chain; linkers in the order of their positions; H or OH if unused. Non-standard residues stand in square brackets, D forms with d. Residues, ends and D or L forms follow the SMILES beside them. X4 = C[C@H](N[*:1])C(=O)C(C)(C)C(=O)[*:2]; Hmpa(2S,3S) = CC[C@H](C)[C@H](O)C(=O)O; NMeY = CN[C@@H](Cc1ccc(O)cc1)C(=O)O; NMeL = CN[C@@H](CC(C)C)C(=O)O; NMeV = CN[C@H](C(=O)O)C(C)C; βAla = NCCC(=O)O

Tests used:
Test in all cases: DTP human tumour cell line panel, 48 h
[1] = system: HCT-15
[2] = system: SK-OV-3
[3] = system: SNB-19
[4] = system: OVCAR-3
[5] = system: OVCAR-8
[6] = system: CAKI-1
[7] = system: SF-539
[8] = system: ACHN
[9] = system: SK-MEL-28
[10] = system: T47D
[11] = system: SN12C
[12] = system: M14
[13] = system: U-251
[14] = system: K562
[15] = system: A549
[16] = system: PC-3
[17] = system: UACC-62
[18] = system: MDA-N
[19] = system: COLO 205
[20] = system: UACC-257
[21] = system: TK-10
[22] = system: NCI/ADR-RES
[23] = system: NCI-H226
[24] = system: A498
[25] = system: MOLT-4
[26] = system: HT-29
[27] = system: LOX IMVI
[28] = system: SK-MEL-5
[29] = system: BT-549
[30] = system: SR
[31] = system: SNB-75
[32] = system: UO-31
[33] = system: OVCAR-4
[34] = system: SF-295
[35] = system: SW-620
[36] = system: SF-268
[37] = system: RPMI-8226
[38] = system: NCI-H460
[39] = system: 786-0
[40] = system: SK-MEL-2
[41] = system: DU-145
[42] = system: MDA-MB-231
[43] = system: KM12
[44] = system: Hs-578T
[45] = system: EKVX
[46] = system: HCT-116
[47] = system: NCI-H23
[48] = system: HOP-92
[49] = system: Malme-3M
[50] = system: MDA-MB-435
[51] = system: HOP-62
[52] = system: NCI-H522
[53] = system: OVCAR-5
[54] = system: MCF7
[55] = system: RXF 393
[56] = system: IGROV-1
[57] = system: HCC 2998
[58] = system: CCRF-CEM
[59] = system: HL-60

Measured: GI50

C(=NCCN1CCOCC1)=NC1CCCCC1
inactive: [2] > 100 µM | [3] > 100 µM | [4] > 100 µM | [5] > 100 µM | [6] > 100 µM | [7] > 100 µM | [8] > 100 µM | [9] > 100 µM | [10] > 100 µM | [11] > 100 µM | [12] > 100 µM | [13] > 100 µM | [14] > 100 µM | [15] > 100 µM | [16] > 100 µM | [17] > 100 µM | [18] > 100 µM | [19] > 100 µM | [20] > 100 µM | [21] > 100 µM | [22] > 100 µM | [23] > 100 µM | [24] > 100 µM | [25] > 100 µM | [26] > 100 µM | [27] > 100 µM | [28] > 100 µM | [29] > 100 µM | [30] 12.4 µM | [31] > 100 µM | [32] > 100 µM | [33] > 100 µM | [34] > 100 µM | [35] > 100 µM | [36] > 100 µM | [37] > 100 µM | [38] > 100 µM | [39] > 100 µM | [40] > 100 µM | [41] > 100 µM | [42] > 100 µM | [43] > 100 µM | [44] > 100 µM | [45] > 100 µM | [46] > 100 µM | [47] > 100 µM | [48] > 100 µM | [49] > 100 µM | [50] > 100 µM | [51] > 100 µM | [52] > 100 µM | [53] > 100 µM | [54] > 100 µM | [55] > 100 µM | [56] > 100 µM
> 100 µM: [1]

OC(Cc1ccc2ccccc2n1)(C(F)(F)F)C(F)(F)F
inactive: [2] > 10 µM | [3] > 10 µM | [4] > 10 µM | [5] > 10 µM | [6] > 10 µM | [7] > 10 µM | [8] > 10 µM | [9] > 10 µM | [10] > 10 µM | [11] > 10 µM | [12] > 10 µM | [13] > 10 µM | [14] > 10 µM | [15] > 10 µM | [16] > 10 µM | [17] > 10 µM | [18] > 10 µM | [19] > 10 µM | [20] > 10 µM | [21] > 10 µM | [22] > 10 µM | [24] > 10 µM | [25] > 10 µM | [26] > 10 µM | [27] > 10 µM | [28] > 10 µM | [29] > 10 µM | [30] > 10 µM | [31] > 10 µM | [32] > 10 µM | [33] > 10 µM | [57] > 10 µM | [34] > 10 µM | [35] > 10 µM | [36] > 10 µM | [37] > 10 µM | [58] > 10 µM | [38] > 10 µM | [39] > 10 µM | [41] > 10 µM | [42] > 10 µM | [43] > 10 µM | [44] > 10 µM | [45] > 10 µM | [46] > 10 µM | [47] > 10 µM | [48] > 10 µM | [49] > 10 µM | [50] > 10 µM | [51] > 10 µM | [52] > 10 µM | [53] > 10 µM | [54] > 10 µM | [56] > 10 µM
> 10 µM: [1]

c1cc2nnc1SCCCSc1ccc(nn1)SCCCSc1ccc(nn1)SCCCS2
inactive: [2] > 100 µM | [3] 44.7 µM | [4] > 100 µM | [5] > 100 µM | [6] > 100 µM | [7] 82.4 µM | [8] > 100 µM | [9] > 100 µM | [10] > 100 µM | [11] > 100 µM | [12] > 100 µM | [13] 65.2 µM | [14] > 100 µM | [15] > 100 µM | [16] > 100 µM | [17] > 100 µM | [18] > 100 µM | [19] > 100 µM | [20] > 100 µM | [21] > 100 µM | [22] > 100 µM | [23] > 100 µM | [59] > 100 µM | [24] > 100 µM | [25] > 100 µM | [26] > 100 µM | [27] > 100 µM | [28] > 100 µM | [29] > 100 µM | [30] > 100 µM | [31] 28.6 µM | [32] > 100 µM | [33] > 100 µM | [57] > 100 µM | [34] > 100 µM | [35] > 100 µM | [36] 92 µM | [37] > 100 µM | [58] > 100 µM | [38] > 100 µM | [39] 61 µM | [40] 83.8 µM | [41] > 100 µM | [42] 97.3 µM | [43] > 100 µM | [44] 32.4 µM | [46] > 100 µM | [47] > 100 µM | [49] > 100 µM | [50] > 100 µM | [51] 39.6 µM | [52] > 100 µM | [53] > 100 µM | [54] > 100 µM | [55] 56.4 µM | [56] > 100 µM
> 100 µM: [1]

COc1cc2cc(C(=O)N3CC(CCl)c4c3cc(N)c3ccccc43)[nH]c2c(OC)c1OC (stereo not drawn)
active: [2] < 0.01 µM | [3] < 0.01 µM | [4] < 0.01 µM | [5] < 0.01 µM | [6] < 0.01 µM | [7] < 0.01 µM | [8] < 0.01 µM | [9] < 0.01 µM | [10] < 0.01 µM | [11] < 0.01 µM | [12] < 0.01 µM | [13] < 0.01 µM | [14] < 0.01 µM | [15] < 0.01 µM | [16] < 0.01 µM | [17] < 0.01 µM | [18] < 0.01 µM | [19] < 0.01 µM | [20] < 0.01 µM | [21] < 0.01 µM | [22] < 0.01 µM | [23] < 0.01 µM | [24] < 0.01 µM | [25] < 0.01 µM | [26] < 0.01 µM | [27] < 0.01 µM | [28] < 0.01 µM | [29] < 0.01 µM | [30] < 0.01 µM | [31] < 0.01 µM | [32] < 0.01 µM | [33] < 0.01 µM | [57] < 0.01 µM | [34] < 0.01 µM | [35] < 0.01 µM | [36] < 0.01 µM | [37] < 0.01 µM | [58] < 0.01 µM | [38] < 0.01 µM | [39] < 0.01 µM | [40] < 0.01 µM | [41] < 0.01 µM | [42] < 0.01 µM | [43] < 0.01 µM | [44] < 0.01 µM | [45] < 0.01 µM | [46] < 0.01 µM | [47] < 0.01 µM | [48] < 0.01 µM | [49] < 0.01 µM | [50] < 0.01 µM | [51] < 0.01 µM | [52] < 0.01 µM | [53] < 0.01 µM | [54] < 0.01 µM | [55] < 0.01 µM | [56] < 0.01 µM
< 0.01 µM: [1]

CC[C@H](C)[C@@H]1OC(=O)CCNC(=O)[C@@H](C)NC(=O)C(C)(C)C(=O)[C@H](C)NC(=O)[C@H](Cc2ccc(OC)cc2)N(C)C(=O)[C@H](C(C)C)N(C)C(=O)CNC(=O)[C@H](CC(C)C)N(C)C(=O)CNC1=O (cyclo(G[NMeL]G[NMeV][NMeY](Me)[X4][dA][βAla][Hmpa(2S,3S)]))
active: [2] 0.294 µM | [3] 0.111 µM | [4] 0.621 µM | [7] 0.252 µM | [9] 0.15 µM | [11] 0.367 µM | [12] 0.885 µM | [13] 0.0855 µM | [14] 0.0389 µM | [15] 0.37 µM | [16] 0.31 µM | [17] 0.294 µM | [18] 0.299 µM | [19] 0.0252 µM | [20] 0.218 µM | [27] 0.175 µM | [28] 0.0879 µM | [30] 0.337 µM | [31] 0.348 µM | [33] 0.284 µM | [57] 0.0715 µM | [34] 0.306 µM | [35] 0.0625 µM | [36] 0.254 µM | [37] 0.0726 µM | [58] 0.0568 µM | [38] 0.0615 µM | [39] 0.676 µM | [40] 0.222 µM | [42] 0.476 µM | [44] 0.916 µM | [46] 0.0352 µM | [47] 0.262 µM | [48] 0.665 µM | [49] 0.217 µM | [50] 0.953 µM | [51] 0.962 µM | [52] 0.0295 µM | [53] 0.724 µM | [54] 0.387 µM | [55] 0.733 µM | [56] 0.697 µM
inactive: [5] 3.58 µM | [6] 1.53 µM | [8] 3.1 µM | [10] 2.19 µM | [21] 1.67 µM | [22] 26.4 µM | [23] 5.92 µM | [24] 1.38 µM | [25] 2.4 µM | [26] 1.84 µM | [29] 2.81 µM | [32] 7.76 µM | [41] 2.71 µM | [45] 3.24 µM
1.63 µM: [1]
